Assay results as given in patent publication US20110136728A1, “METHODS OF INCREASING BONE FORMATION USING LEPTIN-RELATED PEPTIDES” (priority 2009, published 2011).
Values joined by “and” are separate entries in the source; they are usually repeats but may differ in a detail not shown here. Identical values can stand only once. “Also recorded” adds a separate entry of the source. Non-standard residues stand in square brackets, D forms with d. Residues, ends and D or L forms follow the SMILES beside them.

Experiments:
[1] = test system: calorie restricted male C57BL/6J wild type mice; assay: Oral delivery (gavage) in calorie restricted (40%) wild type mice: body weight, serum glucose, serum osteocalcin; type: in vivo, mouse
Method: (§1) Six week-old male C57BL/6J wild type and ob/ob mice were obtained from Jackson Laboratories (Bar Harbor, Me., USA). The animals were housed individually polycarbonate cages fitted with stainless steel wire lids and air filters, and supported on ventilated racks (Thoren Caging Systems, Hazelton, Pa., USA) in the Albany Medical College Animal Resources Facility. The mice were maintained at a constant temperature (24° C.) with lights on from 07:00 to 19:00, and allowed food and water ad libitum for 6 days following arrival. During the test period, mice were fed ad libitum or calorie restricted to 60% of normal. Water intake was allowed ad libitum.
(§2) On day 1 of the study, and on each day thereafter, a water bottle containing 200 ml of water was added to each cage between 09:00 and 10:00 h. Mice fed ad libitum were given 200 g of pelleted rodent diet (Prolab Rat, Mouse, Hamster 3000, St. Louis, Mo.; 22% crude protein, 5% crude fat, 5% fiber, 6% ash, 2.5% additional minerals) between 09:00 and 10:00 h each day. The mice were weighed once daily between 09:00 and 10:00 h on an Acculab V-333 electronic balance (Cole-Parmer, Vernon Hills, Ill., USA). Calorie-restricted wild type and ob/ob mice received 60% of normal daily intake. Twenty four hours later, food and water remaining in the cages was measured to the nearest 0.1 g and 0.1 ml, respectively. To assure fasting glucose levels on days in which blood glucose was measured, food was removed from the cages between 09:00 and 10:00 h, and replaced immediately before the beginning of the dark cycle.
(§3) Mouse [D-Leu-4]OB3 was prepared commercially as a C-terminal amide by Bachem (Torrance, Calif., USA). The peptide was dissolved in 0.3% Intravail A3® (Aegis Therapeutics, San Diego, Calif. USA) reconstituted in water, and administered by gavage once daily for 10 days at a concentration of 1 mg/200 μl immediately before the start of the dark cycle. Is has previously been shown that this is the optimum concentration of mouse [D-Leu-4]-OB3 and its related bioactive peptide amides, for regulating energy expenditure, glucose levels, and insulin sensitivity in two genetically obese mouse models (see Rozhayskaya-Arena M. et al., Endocrinology 141:2501-2517 (2000); Grasso P. et al. Regulatory Pep. 101:123-129 (2001); Grasso P. et al., Diabetes 48:2204-2209 (1999), Grasso P. et al., Endocrinology 138:1413-1418 (1997); Grasso P. et al., Regulatory Peptides 85:93-100 (1999); and Grasso P. et al., Diabetes 48:2204-2209 (1999)). Vehicle injected control mice received 200 ul of Intravail A3® only.
(§4) Initial blood samples were drawn by snipping the end of the tail of each mouse at the beginning of the study (day 0); subsequent samples were obtained by gently removing the scab. Blood was taken 1 h before the onset of the dark period at the beginning of the study, and after 2, 4, 6, 8, and 10 days of treatment. The blood was applied to a test strip, and glucose levels were measured with a Glucometer Elite glucose meter (Bayer, Elkhart, Ind., USA).
(§5) At the end of the study, the mice were anesthetized with isoflurane (5%) and exsanguinated by cardiac puncture. Euthanasia was confirmed by cervical dislocation. The blood was collected in sterile nonheparinized plastic centrifuge tubes and allowed to stand at room temperature for 1 h. The clotted blood was rimmed from the walls of the tubes with sterile wooden applicator sticks. Individual serum samples were prepared by centrifugation for 30 min at 2600×g in an Eppendorf 5702R, A-4-38 rotor (Eppendorf North America, Westbury, N.Y., USA). The serum samples in each experimental group (n=6) were pooled and stored frozen until assayed for osteocalcin content.
(§6) Serum osteocalcin in the pooled samples was assayed in triplicate with a mouse osteocalcin ELISA kit obtained from Biomedical Technologies, Inc. (Stoughton, Mass., USA) according to the instructions supplied by the manufacturer. […]

[2] = test system: calorie restricted male C57BL/6J ob/ob mice; assay: Oral delivery (gavage) in calorie restricted (40%) ob/ob mice: body weight, serum glucose, serum osteocalcin; type: in vivo, mouse
Method: as §1, §2, §3, §4, §5, §6

[3] = test system: male C57BLK/6-m db/db mice; assay: Intranasal delivery in db/db mice: body weight, food and water intake, serum glucose, insulin, osteocalcin; type: in vivo, mouse
Method: Each bar and vertical line represents mean±SEM serum glucose level (n=6).
FIG. 17. Effects of intranasal administration of mouse [D-Leu-4]-OB3 (1 mg/day, 14 days) on body weight gain in C57BLk/6-m db/db mice. […] Each point represents the mean±standard error of mean change in body weight for a group of six mice.
In the present study, the effects of intranasal administration of mouse [D-Leu-4]-OB3 in Intravail® on energy balance, serum osteocalcin, and serum insulin levels in genetically obese male C57BLK/6-m db/db mice allowed food and water ad libitum were examined. […] (See FIGS. 12 and 13). […] (See FIGS. 14 and 15).
In the present study, the effects of intranasal delivery of mouse [D-Leu-4]-OB3 in Intravail® on energy balance, glucose regulation, insulin secretion, and serum levels of osteocalcin, a specific and sensitive marker of bone formation were examined Genetically obese C57BLK/6-m db/db mice were allowed food and water ad libitum, and given either Intravail® alone or mouse [D-Leu-4]-OB3 in Intravail® for 14 days. […] Serum insulin levels in db/db mice given mouse [D-Leu-4]-OB3 were approximately 3-fold lower than those in mice receiving Intravail® alone. Mouse [D-Leu-4]-OB3 elevated serum osteocalcin in db/db mice by 28.7% over Intravail® treated control mice. […] In addition, its effects on bone turnover may also be useful in the prevention and/or reversal of at least some of the bone loss which accompanies osteoporosis, anorexia nervosa, cancer, and other wasting diseases not associated with the obesity syndrome.

[4] = Observation of toxic side effects in treated animals; type: in vivo; details: treated mice or rats
[5] = 1 mg/day, 10 days, gavage in Intravail
[6] = after 10 days, 1 mg/day gavage in Intravail
[7] = day 0, 1 mg/day, 10 days, gavage in Intravail
[8] = 1 mg/day, 14 days, intranasal in Intravail

With `CC(C)C[C@@H](NC(=O)[C@H](CO)NC(=O)[C@H](CS)NC(=O)[C@@H](N)CO)C(=O)N1CCC[C@H]1C(=O)N[C@@H](CCC(N)=O)C(=O)N[C@H](C(N)=O)[C@@H](C)O` [mouse [D-Leu-4]-OB3] (H-SCS[dL]PQT-NH2; N-terminus assumed) the “Body weight (% of initial)” value [1, 5] was 90.0 ± 0.8 % of initial, the Final body weight [1, 5] was 20.3 ± 0.7 g and the Serum osteocalcin [1, 5] was 216.6 ± 0.4 ng/mL. For the same compound, the “serum osteocalcin, effect on decrease caused by calorie restriction” value ([1]; 10 days gavage) was “prevented this decrease; also recorded: significantly (P<0.001) elevated serum osteocalcin levels to levels Seen in Intravail® treated wild type mice fed ad libitum”, the “weight loss compared to calorie restriction with Intravail alone (words)” value ([1]; 10 days gavage) was “did not enhance this weight loss” and the “weight loss compared to calorie restriction with Intravail alone (words)” value ([1]; 10 days gavage, listed as mouse [D-leu-4]-OB3) was “essentially the same”. For the same compound, the Final serum glucose [1, 6] was 134.8 ± 14.8 mg/dL, the Initial serum glucose ([1]; day 0) was 186.7 ± 36.7 mg/dL and the Initial body weight [1, 7] was 22.6 ± 0.8 g. The “Body weight (% of initial)” value [2, 5] was 90.0 ± 0.8 % of initial, the Final body weight [2, 5] was 30.8 ± 0.6 g and the Serum osteocalcin [2, 5] was 290.1 ± 3.2 ng/mL. The “serum glucose compared to calorie restriction alone” value ([2]; 10 days gavage) was “normalized levels; also recorded: significantly (P<0.001) reduced serum glucose levels to levels Seen in wild type mice allowed food ad libitum”, the “serum osteocalcin, effect on decrease caused by calorie restriction” value ([2]; 10 days gavage) was “significantly elevated serum osteocalcin levels; also recorded: prevented this decrease” and the “weight loss compared to calorie restriction with Intravail alone (words)” value ([2]; 10 days gavage) was “did not enhance this weight loss; also recorded: essentially the same”. For the same compound, the “elevation of serum osteocalcin” value ([2]; after 10 days of treatment) was 93.4%, the Final serum glucose [2, 6] was 176.5 ± 32.8 mg/dL and the Initial serum glucose ([2]; day 0) was 480.2 ± 36.7 mg/dL. The Initial body weight [2, 7] was 34.2 ± 0.4 g, the “Body weight (% of initial)” value [3, 8] was 104.9 ± 1.4 % of initial and the Final body weight [3, 8] was 37.0 ± 1.7 g. For the same compound, the Food intake [3, 8] was 6.1 g/mouse/day and 6.1 ± 0.3 g/mouse/day, the Serum insulin [3, 8] was 0.95 ng/mL and 0.95 ± 0.03 ng/mL and the Serum osteocalcin [3, 8] was 470 ng/mL and 470.0 ± 20.0 ng/mL. For the same compound, the Water intake [3, 8] was 21.2 ml/mouse/day and 21.2 ± 1.8 ml/mouse/day, the “reduction of serum glucose” value ([3]; 14 days intranasal in Intravail) was 61.9% and the “body weight increase over initial body weight (heavier)” value ([3]; after 14 days intranasal in Intravail) was 4.9%. It also gave an Initial serum glucose ([3]; day 0) of 472 ± 7.3 mg/dL, an Initial body weight ([3]; day 0, 1 mg/day, 14 days, intranasal in Intravail) of 35.0 ± 1.1 g and a Final serum glucose ([3]; day 14, 1 mg/day intranasal in Intravail) of 209 ± 89.4 mg/dL. For the same compound, the “toxic side effects (words)” value [4] was “lack of toxicity” and the “toxic side effects (words)” value ([4]; listed as [D-Leu-4]-OB3) was “no obvious toxic side effects have ever been observed”.
